Data reported in patent US6900219B2, “ABCA-1 elevating compounds” (CV Therapeutics, Inc., priority 2002, dated 2005).

What follows are molecules tested on ABCA-1 gene (assay: compounds tested and found to elevate cellular expression of the ABCA-1 gene (Examples 1-6; test not named)).
Assay type: cell-based
Protocol: Activity testing is conducted as described in those patents and patent applications referenced above, and in the Examples below, and by methods apparent to one skilled in the art.

SMILES	cellular expression of the ABCA-1 gene
CC(C)CN(C(=O)Nc1cccc(Cl)c1)C(C)c1nc2ccccc2c(=O)n1-c1ccc2ccccc2c1 (stereo not shown) [[(3-chlorophenyl)amino]-N-(2-methylpropyl)-N-[(3-(2-naphthyl)-4-oxo(3-hydroquinazolin-2-yl))ethyl]carboxamide]	elevate cellular expression of the ABCA-1 gene
O=C(Nc1cccc(Cl)c1)Nc1ccc2c(c1)CCC2 [[(3-chlorophenyl)amino]-N-indan-5-ylcarboxamide]	elevate cellular expression of the ABCA-1 gene
CCCN(C(=O)Nc1cccc(F)c1)C(C)c1nc2ccccc2c(=O)n1-c1ccc2ccccc2c1 (stereo not shown) [[(3-fluorophenyl)amino]-N-[(3-(2-naphthyl)-4-oxo(3-hydroquinazolin-2-yl))ethyl]-N-propylcarboxamide]	elevate cellular expression of the ABCA-1 gene
CC(=O)c1ccc(NC(=O)Nc2ccc(Cl)c(Cl)c2)cc1 [[(4-acetylphenyl)amino]-N-(3,4-dichlorophenyl)carboxamide]	elevate cellular expression of the ABCA-1 gene
CCCN(C(=O)Nc1ccc(Br)cc1)C(C)c1nc2ccccc2c(=O)n1-c1ccc2ccccc2c1 (stereo not shown) [[(4-bromophenyl)amino]-N-[(3-(2-naphthyl)-4-oxo(3-hydroquinazolin-2-yl))ethyl]-N-propylcarboxamide]	elevate cellular expression of the ABCA-1 gene
CC(C)CN(C(=O)Nc1ccc(Cl)cc1)C(C)c1nc2ccccc2c(=O)n1-c1ccc2ccccc2c1 (stereo not shown) [[(4-chlorophenyl)amino]-N-(2-methylpropyl)-N-[(3-(2-naphthyl)-4-oxo(3-hydroquinazolin-2-yl))ethyl]carboxamide]	elevate cellular expression of the ABCA-1 gene
O=C(Nc1ccc(Cl)cc1)NC1CCCCC1 [[(4-chlorophenyl)amino]-N-cyclohexylcarboxamide]	elevate cellular expression of the ABCA-1 gene
Cc1ccc(NC(=O)N(CC(C)C)C(C)c2nc3ccccc3c(=O)n2-c2ccc3ccccc3c2)cc1 (stereo not shown) [[(4-methylphenyl)amino]-N-(2-methylpropyl)-N-[(3-(2-naphthyl)-4-oxo(3-hydroquinazolin-2-yl))ethyl]carboxamide]	elevate cellular expression of the ABCA-1 gene
CCCCCc1ccc(NC(=O)NC2=NCCS2)cc1 [[(4-pentylphenyl)amino]-N-(1,3-thiazolin-2-yl)carboxamide]	elevate cellular expression of the ABCA-1 gene
O=C(NCC1CCCCC1)Nc1ccc2c(c1)CCC2 [[(cyclohexylmethyl)amino]-N-indan-5-ylcarboxamide]	elevate cellular expression of the ABCA-1 gene
CCOc1ccc2nc(NC(=O)NC(C)(C)C)sc2c1 [[t-butylamino]-N-(6-ethoxybenzothiazol-2-yl)carboxamide]	elevate cellular expression of the ABCA-1 gene
O=C(Nc1ccc(F)cc1F)c1cc2ccccc2s1 [benzo[b]thiophen-2-yl-N-(2,4-difluorophenyl)carboxamide]	elevate cellular expression of the ABCA-1 gene
O=C(Nc1nc2c(Cl)cccc2s1)c1cc2ccccc2s1 [benzo[b]thiophen-2-yl-N-(4-chlorobenzothiazol-2-yl)carboxamide]	elevate cellular expression of the ABCA-1 gene
O=C(Nc1nc2ccccc2s1)c1cc2ccccc2s1 [benzo[b]thiophen-2-yl-N-benzothiazol-2-ylcarboxamide]	elevate cellular expression of the ABCA-1 gene
Cc1cc(C(=O)c2cc3ccccc3o2)ccc1Cl [benzo[d]furan-2-yl 4-chloro-3-methylphenyl ketone]	elevate cellular expression of the ABCA-1 gene
COc1cccc(Nc2nc3ccccc3s2)c1 [benzothiazol-2-yl-(3-methoxyphenyl)amine]	elevate cellular expression of the ABCA-1 gene
O=C(Nc1ncc(-c2ccccc2)s1)C1CCCCC1 [cyclohexyl-N-(5-phenyl(1,3-thiazol-2-yl))carboxamide]	elevate cellular expression of the ABCA-1 gene
O=C(Nc1nc(-c2ccc3ccccc3c2)cs1)C1CCCC1 [cyclopentyl-N-(4-(2-naphthyl)(1,3-thiazol-2-yl))carboxamide]	elevate cellular expression of the ABCA-1 gene
O=C(Nc1ncc(-c2ccccc2)s1)C1CCCC1 [cyclopentyl-N-(5-phenyl(1,3-thiazol-2-yl))carboxamide]	elevate cellular expression of the ABCA-1 gene

SMILES	cellular expression of the ABCA-1 gene
O=C(Nc1nc(-c2ccccc2)ns1)C1CC1 [cyclopropyl-N-(3-phenyl(1,2,4-thiadiazol-5-yl))carboxamide]	elevate cellular expression of the ABCA-1 gene
O=C(Nc1ncc(-c2ccccc2)s1)C1CC1 [cyclopropyl-N-(5-phenyl(1,3-thiazol-2-yl))carboxamide]	elevate cellular expression of the ABCA-1 gene
O=C(Nc1ncc(-c2ccc(F)cc2)s1)C1CC1 [cyclopropyl-N-[5-(4-fluorophenyl)(1,3-thiazol-2-yl)]carboxamide]	elevate cellular expression of the ABCA-1 gene
CCOC(=O)C1CCCCN1C(=O)c1ccc2c(c1)OCO2 (stereo not shown) [ethyl 1-(2H-benzo[d]1,3-dioxolen-5-ylcarbonyl)piperidine-2-carboxylate]	elevate cellular expression of the ABCA-1 gene
CCOC(=O)C1=C(NCCc2ccccc2)CCN(C(=O)c2ccc(Cl)cc2Cl)C1 [ethyl 1-[(2,4-dichlorophenyl)carbonyl]-4-[(2-phenylethyl)amino]-1,2,5,6-tetrahydropyridine-3-carboxylate]	elevate cellular expression of the ABCA-1 gene
CCOC(=O)C1=C(NCCc2ccccc2)CCN(C(=O)c2ccc([N+](=O)[O-])cc2Cl)C1 [ethyl 1-[(2-chloro-4-nitrophenyl)carbonyl]-4-[(2-phenylethyl)amino]-1,2,5,6-tetrahydropyridine-3-carboxylate]	elevate cellular expression of the ABCA-1 gene
CCOC(=O)C1=C(NCCc2ccccc2)CCN(C(=O)c2ccccc2C)C1 [ethyl 1-[(2-methylphenyl)carbonyl]-4-[(2-phenylethyl)amino]-1,2,5,6-tetrahydropyridine-3-carboxylate]	elevate cellular expression of the ABCA-1 gene
CCOC(=O)C1=C(NCCc2ccccc2)CCN(C(=O)c2ccc(Br)cc2)C1 [ethyl 1-[(4-bromophenyl)carbonyl]-4-[(2-phenylethyl)amino]-1,2,5,6-tetrahydropyridine-3-carboxylate]	elevate cellular expression of the ABCA-1 gene
CCOC(=O)C1=C(NCCc2ccccc2)CCN(C(=O)c2ccc(CC)cc2)C1 [ethyl 1-[(4-ethylphenyl)carbonyl]-4-[(2-phenylethyl)amino]-1,2,5,6-tetrahydropyridine-3-carboxylate]	elevate cellular expression of the ABCA-1 gene
CCOC(=O)C1=C(NCCc2ccccc2)CCN(C(=O)c2ccc(F)cc2)C1 [ethyl 1-[(4-fluorophenyl)carbonyl]-4-[(2-phenylethyl)amino]-1,2,5,6-tetrahydropyridine-3-carboxylate]	elevate cellular expression of the ABCA-1 gene
CCOC(=O)C1=C(NCCc2ccccc2)CCN(C(=O)c2ccc(OC)cc2)C1 [ethyl 1-[(4-methoxyphenyl)carbonyl]-4-[(2-phenylethyl)amino]-1,2,5,6-tetrahydropyridine-3-carboxylate]	elevate cellular expression of the ABCA-1 gene
CCOC(=O)C1=C(NCCc2ccccc2)CCN(C(=O)c2ccc(C)cc2)C1 [ethyl 1-[(4-methylphenyl)carbonyl]-4-[(2-phenylethyl)amino]-1,2,5,6-tetrahydropyridine-3-carboxylate]	elevate cellular expression of the ABCA-1 gene
CCOC(=O)C1=C(NCCc2ccccc2)CCN(C(=O)c2ccc([N+](=O)[O-])cc2)C1 [ethyl 1-[(4-nitrophenyl)carbonyl]-4-[(2-phenylethyl)amino]-1,2,5,6-tetrahydropyridine-3-carboxylate]	elevate cellular expression of the ABCA-1 gene
CCOC(=O)C1=C(NCCc2ccccc2)CCN(C(=O)c2ccc(C(C)(C)C)cc2)C1 [ethyl 1-[(4-t-butylphenyl)carbonyl]-4-[(2-phenylethyl)amino]-1,2,5,6-tetrahydropyridine-3-carboxylate]	elevate cellular expression of the ABCA-1 gene
CCOC(=O)Cc1csc(NC(=O)Nc2ccccc2F)n1 [ethyl 2-(2-{[(2-fluorophenyl)amino]carbonylamino}-1,3-thiazol-4-yl)acetate]	elevate cellular expression of the ABCA-1 gene
CCOC(=O)CNC(=O)N(CCN(C)C)C(C)c1nc2ccccc2c(=O)n1-c1ccc2ccccc2c1 (stereo not shown) [ethyl 2-({N-[2-(dimethylamino)ethyl]-N-[(3-(2-naphthyl)-4-oxo(3-hydroquinazolin-2-yl))ethyl]carbamoyl}amino)acetate]	elevate cellular expression of the ABCA-1 gene
CCOC(=O)CNC(=O)N(CCOC)C(C)c1nc2ccccc2c(=O)n1-c1ccc(Br)cc1 (stereo not shown) [ethyl 2-[(N-{[3-(4-bromophenyl)-4-oxo(3-hydroquinazolin-2-yl)]ethyl}-N-(2-methoxyethyl)carbamoyl)amino]acetate]	elevate cellular expression of the ABCA-1 gene
CCOC(=O)CCN(CCc1ccccc1)C(=O)c1ccc2c(c1)OCO2 [ethyl 3-[2H-benzo[d]1,3-dioxolen-5-yl-N-(2-phenylethyl)carbonylamino]propanoate]	elevate cellular expression of the ABCA-1 gene
